Experimental data published in US20220119355A1, “SATURATED-RING-FUSED DIHYDROPYRIMIDINONE OR DIHYDROTRIAZINONE COMPOUNDS AND PHARMACEUTICAL USE THEREOF” (Japan Tobacco Inc., priority 2018, published 2022).

Legend:
human RORγ = target: T1, human RORγ (Homo sapiens, UniProt P51449); experiment: In-vitro reporter gene assay for inhibitory activity against RORγ transcription, Test Method B (pFA/hRORγ LBD / pG5-Luc in CHO cells); format: cell-based; conditions: for EC50: luciferase reporter, CHO cells, 2 days
T1 construct: from Ser253 to Lys518 for human RORγ; expressed in transfected cells; host or cells: CHO cells (transient co-transfection with pG5-Luc)
T1 sequence (P51449 253-518): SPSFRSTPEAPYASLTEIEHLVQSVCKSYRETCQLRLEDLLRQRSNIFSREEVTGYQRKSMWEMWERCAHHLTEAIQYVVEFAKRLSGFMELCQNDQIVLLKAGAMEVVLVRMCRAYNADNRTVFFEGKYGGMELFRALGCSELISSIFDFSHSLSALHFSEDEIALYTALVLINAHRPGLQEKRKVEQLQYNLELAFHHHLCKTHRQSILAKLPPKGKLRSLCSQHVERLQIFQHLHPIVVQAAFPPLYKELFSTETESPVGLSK
Method: (§1) In-Vitro Assay for Inhibitory Activity Against RORγ Transcription
(§2) Inhibitory activity against RORγ transcription was assessed for test compounds by either of the following Test Method A or B of reporter gene assay.
(§3) cDNAs encoding human and mouse RORγ ligand binding domains (LBD) were obtained based on the sequences of human RORγ (Genbank registered number NM_005060.3) and mouse RORγ (Genbank registered number NM_011281.2) (LBD sequences: from Ser253 to Lys518 for human RORγ; from Ile251 to Lys516 for mouse RORγ).
(§4) LBD cDNAs of human and mouse RORγ were inserted into pFA-CMV vector (Agilent Technologies, Inc.), which expresses GAL4-DNA binding domain fusion protein. The resulting plasmids are hereinafter referred to as pFA/hRORγ plasmid and pFA/mRORγ plasmid, respectively.
(§5) pFA/hRORγ plasmid or pFA/mRORγ plasmid was transiently co-transfected into Chinese hamster ovary cells (CHO cells) with pG5-Luc (Promega), reporter plasmid expressing firefly luciferase in a GAL4-dependent manner.
(§6) TransIT (Registered trademark) CHO Transfection Kit (Mirus) was used to co-transfect CHO cells with the plasmids. One day prior to the assay, CHO cells were suspended in HAM F-12 Nutrient medium containing 10% (v/v) fetal bovine serum and seeded at 5.5×10^6 cells per 225 cm^2 cell culture flask each. 72 μL of TransIT (Registered trademark) CHO reagent was added into a 2 mL tube containing 1.55 mL of Opti-MEM, and then mixed and incubated at room temperature for 10 minutes. 50.4 μL of a plasmid solution containing 300 ng of pFA/hRORγ plasmid, 12000 ng of pG5-Luc plasmid, and 11700 ng of pcDNA3.1 plasmid were added into the tube and mixed gently. In the case of mouse assay, a plasmid solution containing 300 ng of pFA/mRORγ plasmid, 12000 ng of pG5-Luc plasmid, and 11700 ng of pcDNA3.1 plasmid was added, instead. The mixture was incubated at room temperature for 10 minutes. 12 μL each of CHO Mojo Reagent were then added into each tube and mixed gently. The mixture was incubated at room temperature for 10 minutes. The resulting transfection reagent was applied to the cell culture. After incubation at 37° C., 5% CO2 for 4 hours, the plasmid-transfected CHO cells were harvested by trypsin treatment. The collected cells were resuspended in culture medium and plated into a 384-well-white plate at 8,000 cells/35 μL/well. The plate was let stand at room temperature for 1 hour and then further incubated at 37° C., 5% CO2 for 3 hours. A test compound was dissolved in dimethyl sulfoxide (DMSO) to obtain a concentration of 10 mM. Each solution was serially diluted with DMSO and further diluted with culture medium just before use. The test compound solutions were added to the cells in the plate at 6 different concentrations. The final concentration of DMSO was 0.2% (v/v). After the addition of test compound, the cells were incubated at 37° C., 5% CO2 for 2 days.
(§7) RORγ transcriptional activity was detected as the intracellular luciferase activity using SteadyLite HTS Reporter Gene Assay System (Perkin Elmer). SteadyLite Reagent was diluted 2.5-fold with Extension buffer (10 mM Tricine, 0.2% (w/v) bovine serum albumin, 0.02% (v/v) Tween-20) to obtain a luciferase substrate solution. Two days after the addition of test compound, 40 μL each of the luciferase substrate solution was added into the 384-well-plate. After the incubation at room temperature for 10 minutes, luminescence of each well was measured with a microplate reader. The luciferase activity derived from the luminescence count in a vehicle-control well treated with 0.2% DMSO alone was defined as 100%, and the luciferase activity after treatment of the test compound was calculated as a percentage, %-of-control, based on the value of the vehicle-control. An EC50 value of the test compound was calculated by curve fitting. The luminescence counts at the concentration of test compound where cytotoxicity was observed were excluded from data analysis. […]

mouse RORγ = target: T2, mouse RORγ (Mus musculus, UniProt P51450); experiment: In-vitro reporter gene assay for inhibitory activity against RORγ transcription, Test Method B (pFA/mRORγ LBD / pG5-Luc in CHO cells); format: cell-based; conditions: for EC50: luciferase reporter, CHO cells, 2 days
T2 construct: from Ile251 to Lys516 for mouse RORγ; expressed in transfected cells; host or cells: CHO cells (transient co-transfection with pG5-Luc)
T2 sequence (P51450 251-516): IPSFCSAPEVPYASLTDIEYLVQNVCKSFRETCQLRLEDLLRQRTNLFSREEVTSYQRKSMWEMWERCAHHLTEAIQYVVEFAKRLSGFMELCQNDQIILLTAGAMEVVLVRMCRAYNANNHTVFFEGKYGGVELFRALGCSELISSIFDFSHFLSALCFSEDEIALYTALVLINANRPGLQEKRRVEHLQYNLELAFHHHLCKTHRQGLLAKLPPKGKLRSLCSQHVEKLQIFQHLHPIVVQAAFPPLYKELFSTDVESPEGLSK
Method: as §1, §2, §3, §4, §5, §6, §7

[1] = vehicle-control 0.2% DMSO = 100%

SMILES	EC50 (human RORγ)	hRORγ luciferase activity after treatment with test compound, %-of-control (human RORγ; [1])	EC50 (mouse RORγ)	mRORγ luciferase activity after treatment with test compound, %-of-control (mouse RORγ; [1])
CC(C)Oc1ccc(C23CCCCC2=CN(CCC(=O)O)C(=O)N3)cc1Cl (racemic) [Example 96]	> 10 µM	(84%)	> 10 µM	(84%)
CC1(C)CC(COc2ccc(C34CCCCC3=CN(CCC(=O)O)C(=O)N4)cc2Cl)C1 (racemic) [Example 100]	0.206 µM		0.055 µM	
CCCCOc1ccc(C23CCCCC2=CN(CCC(=O)O)C(=O)N3)cc1Cl (racemic) [Example 101]	7.28 µM		1.39 µM	
CC1C2=CN(C34CC(C(=O)O)(C3)C4)C(=O)NC2(c2ccc(CCC(C)(C)C)c(Cl)c2)CC1(C)C (single isomer, unassigned) [Example 34]	0.087 µM		0.169 µM	
CC1C2=CN(C34CC(C(=O)O)(C3)C4)C(=O)NC2(c2ccc(CCC(C)(C)C)c(Cl)c2)CC1(C)C (single isomer, unassigned) [Example 35]	4.19 µM		4.97 µM	
CC(C)(C)CCc1ccc([C@]23CCC(F)(F)CC2=CN(C24CC(C(=O)O)(C2)C4)C(=O)N3)cc1Cl (single isomer, unassigned) [Example 86]	4.94 µM		4.37 µM	
CC(C)(C)CCc1ccc([C@@]23CCC(F)(F)CC2=CN(C24CC(C(=O)O)(C2)C4)C(=O)N3)cc1Cl (single isomer, unassigned) [Example 87]	0.038 µM		0.029 µM	
CC1CC[C@]2(c3ccc(CCC(C)(C)C)c(Cl)c3)NC(=O)N(C34CC(C(=O)O)(C3)C4)C=C2C1 (single isomer, unassigned) [Example 89]	3.71 µM		4.19 µM	
CC1CC[C@@]2(c3ccc(CCC(C)(C)C)c(Cl)c3)NC(=O)N(C34CC(C(=O)O)(C3)C4)C=C2C1 (single isomer, unassigned) [Example 90]	0.022 µM		0.023 µM	
CC1CC[C@]2(c3ccc(CCC(C)(C)C)c(Cl)c3)NC(=O)N(C34CC(C(=O)O)(C3)C4)C=C2C1 (single isomer, unassigned) [Example 91]	0.111 µM		0.185 µM	
CC1CC[C@@]2(c3ccc(CCC(C)(C)C)c(Cl)c3)NC(=O)N(C34CC(C(=O)O)(C3)C4)C=C2C1 (single isomer, unassigned) [Example 92]	0.042 µM		0.019 µM	
CCC1CC[C@]2(c3ccc(CCC(C)(C)C)c(Cl)c3)NC(=O)N(C34CC(C(=O)O)(C3)C4)C=C2C1 (single isomer, unassigned) [Example 93]	3.97 µM		4.23 µM	
CCC1CC[C@@]2(c3ccc(CCC(C)(C)C)c(Cl)c3)NC(=O)N(C34CC(C(=O)O)(C3)C4)C=C2C1 (single isomer, unassigned) [Example 94]	0.046 µM		0.082 µM	
CC(C)(C)CCc1ccc(C23CCC(C#N)CC2=CN(C24CC(C(=O)O)(C2)C4)C(=O)N3)cc1Cl (single isomer, unassigned) [Example 97]	0.11 µM		0.156 µM	
CC(C)C1CC[C@]2(c3ccc(CCC(C)(C)C)c(Cl)c3)NC(=O)N(C34CC(C(=O)O)(C3)C4)C=C2C1 (single isomer, unassigned) [Example 98]	4.36 µM		5.11 µM	
CC(C)C1CC[C@@]2(c3ccc(CCC(C)(C)C)c(Cl)c3)NC(=O)N(C34CC(C(=O)O)(C3)C4)C=C2C1 (single isomer, unassigned) [Example 99]	0.053 µM		0.146 µM	
CC(C)(C)CCc1ccc([C@]23CCC(C)(C)CC2=CN(C24CC(C(=O)O)(C2)C4)C(=O)N3)cc1Cl (single isomer, unassigned) [Example 102]	3.95 µM		4.57 µM	
CC(C)(C)CCc1ccc([C@@]23CCC(C)(C)CC2=CN(C24CC(C(=O)O)(C2)C4)C(=O)N3)cc1Cl (single isomer, unassigned) [Example 103]	0.026 µM		0.046 µM	
CC(C)C1CC[C@]2(c3ccc(CCC(C)(C)C)c(Cl)c3)NC(=O)N([C@H]3CC[C@@H](C(=O)O)C3)C=C2C1 (single isomer, unassigned) [Example 104]	5.26 µM		5.28 µM	
CC(C)C1CC[C@@]2(c3ccc(CCC(C)(C)C)c(Cl)c3)NC(=O)N([C@H]3CC[C@@H](C(=O)O)C3)C=C2C1 (single isomer, unassigned) [Example 105]	0.102 µM		0.113 µM	
C[C@@H]1CCC2(c3ccc(CCC(C)(C)C)c(Cl)c3)NC(=O)N(C34CC(C(=O)O)(C3)C4)C=C2[C@@H]1C (single isomer, unassigned) [Example 106]	4.4 µM		4.78 µM	
C[C@H]1CCC2(c3ccc(CCC(C)(C)C)c(Cl)c3)NC(=O)N(C34CC(C(=O)O)(C3)C4)C=C2[C@@H]1C (single isomer, unassigned) [Example 107]	0.027 µM		0.032 µM	
CC1C2=CN(C34CC(C(=O)O)(C3)C4)C(=O)N[C@@]2(c2ccc(CCC(C)(C)C)c(Cl)c2)COC1(C)C (single isomer, unassigned) [Example 108]	4.69 µM		5.05 µM	
CC1C2=CN(C34CC(C(=O)O)(C3)C4)C(=O)N[C@]2(c2ccc(CCC(C)(C)C)c(Cl)c2)COC1(C)C (single isomer, unassigned) [Example 109]	0.033 µM		0.036 µM	
CC1C2=CN(C34CC(C(=O)O)(C3)C4)C(=O)N[C@]2(c2ccc(CCC(C)(C)C)c(Cl)c2)COC1(C)C (single isomer, unassigned) [Example 110]	0.01 µM		0.012 µM	
CC1CC[C@]2(c3ccc(CCC(C)(C)C)c(Cl)c3)NC(=O)N(C34CCC(C(=O)O)(C3)C4)C=C2C1 (single isomer, unassigned) [Example 111]	3.45 µM		3.66 µM	
CC1CC[C@@]2(c3ccc(CCC(C)(C)C)c(Cl)c3)NC(=O)N(C34CCC(C(=O)O)(C3)C4)C=C2C1 (single isomer, unassigned) [Example 112]	0.035 µM		0.038 µM	
C[C@H]1CCC2(c3ccc(C4C(C(C)(C)C)C4(F)F)c(Cl)c3)NC(=O)N(C34CC(C(=O)O)(C3)C4)C=C2[C@@H]1C (single isomer, unassigned) [Example 113]	0.033 µM		0.037 µM	
C[C@H]1CCC2(c3ccc(C4C(C(C)(C)C)C4(F)F)c(Cl)c3)NC(=O)N(C34CC(C(=O)O)(C3)C4)C=C2[C@@H]1C (single isomer, unassigned) [Example 114]	0.027 µM		0.05 µM	
